Data published in patent publication US6455530B1, “2R,4S,S,S- and 2S,4R,S,S-hydroxyitraconazole” (Sepracor Inc., priority 1996, dated 2002).

What was measured:
[1] = oral, daily administration; cited from earlier work
Saccharomyces cerevisae = assay: Kirby-Bauer testing (paper disk zones of inhibition); assay type: cell-based; settings: 10 μl of 10 mg/mL solution on 7 mm paper disk, Sabouraud Dextrose agar, 30° C. for 16 hours
Description: (§1) Actively growing cultures of Candida albicans, Cryptococcus neoformens and Saccharomnyces cerevisiae were prepared as described above. The cultures were diluted to a 0.5 McFarland standard and swabbed onto a 150 mm Sabouraud Dextrose agar plates. Paper disks (7 mm) were placed onto the agar plates using a disk dispenser. Next 10 μl of 10 mg/mL solutions of each sample hydroxy-itraconazole was pipetted onto separate paper disks. The plates were then incubated at 30° C. for 16 hours. Zones of inhibition were then measured in mm. Data Represent Zones of Inhibition in mm.

Cryptococcus neoformens = assay: as above; assay type: cell-based; settings: 10 μl of 10 mg/mL solution on 7 mm paper disk, Sabouraud Dextrose agar, 30° C. for 16 hours
Description: as §1

Candida albicans = assay: as above; assay type: cell-based; settings: 10 μl of 10 mg/mL solution on 7 mm paper disk, Sabouraud Dextrose agar, 30° C. for 16 hours
Description: as §1

Compound	Time at which peak plasma levels are attained [1] [days]	zone of inhibition at 10000 µg/mL (Saccharomyces cerevisae; Saccharomyces) [mm]	zone of inhibition at 10000 µg/mL (Cryptococcus neoformens; Cryptococcus) [mm]	zone of inhibition at 10000 µg/mL (Candida albicans; Candida albicans) [mm]	Zones of Inhibition, Saccharomyces cerevisae (Saccharomyces cerevisae) [mm]	Zones of Inhibition, Cryptococcus neoformens (Cryptococcus neoformens) [mm]	Zones of Inhibition, Candida albicans (Candida albicans) [mm]
CCC(C)n1ncn(-c2ccc(N3CCN(c4ccc(OCC5COC(Cn6cncn6)(c6ccc(Cl)cc6Cl)O5)cc4)CC3)cc2)c1=O (racemic) [± Itraconazole, 4-[4-[4-[4-[[2-(2,4-dichlorophenyl)-2-(1H-1,2,4-triazol-1-ylmethyl)-1,3-dioxolan-4-yl]methoxy]phenyl]-1-piperazinyl]phenyl]-2,4dihydro-2-(1-methylpropyl)-3H-1,2,4triazol-3-one, reference compound]	15	15	22	17	–	–	–
C[C@H]([C@@H](C)O)n1ncn(-c2ccc(N3CCN(c4ccc(OC[C@H]5CO[C@](Cn6cncn6)(c6ccc(Cl)cc6Cl)O5)cc4)CC3)cc2)c1=O (single isomer, unassigned) [A diastereomer, (2R,4S)-4-[4-[4-[4-[[2-(2,4-Dichlorophenyl)-2-(1H-1,2,4-triazole-1-ylmethyl)-1,3-dioxolan-4-yl]methoxy]phenyl]-[-piperazinyl[phenyl]-2,4dihydro-2-[(1R*,2R*)-(2-hydroxy-1-methylpropyl)]-3H -1,2,4-triazol-3-one]	–	–	–	–	23	34	23
C[C@H]([C@@H](C)O)n1ncn(-c2ccc(N3CCN(c4ccc(OC[C@@H]5CO[C@@](Cn6cncn6)(c6ccc(Cl)cc6Cl)O5)cc4)CC3)cc2)c1=O (single isomer, unassigned) [B diastereomer, (2S,4R)-4-[4-[4-[4-[[2-(2,4-Dichlorophenyl)-2-(1H-1,2,4,-triazole-1-ylmethyl)-1,3-dioxolan-4-yl}methoxy]phenyl]-1-piperazinyl]phenyl]-2,4-dihydro-2-[(1R*,2R*)-(2-hydroxy-1-methylpropyl)-3H-1,2,4-triazol-3-one]	–	–	–	–	25	32	27
